Test results: patent US20100298314A1, “NOVEL JNK INHIBITORS” (Schering Corporation, priority 2006, published 2010)
pIC50: −log10 of the molar value. Several values for one entry are separate records, joined by “and”; a condition that tells them apart may be missing. Equal entries are not always repeated. Where two headings read alike, the source gives them in different places.

Experiments:
Assay type in all cases: biochemical
JNK1 = JNK1 (Homo sapiens, UniProt P45983); test: JNK1 kinase DELFIA (phosphorylation of biotinylated GST-ATF2)
JNK1, sequence (P45983 whole entry, species assumed): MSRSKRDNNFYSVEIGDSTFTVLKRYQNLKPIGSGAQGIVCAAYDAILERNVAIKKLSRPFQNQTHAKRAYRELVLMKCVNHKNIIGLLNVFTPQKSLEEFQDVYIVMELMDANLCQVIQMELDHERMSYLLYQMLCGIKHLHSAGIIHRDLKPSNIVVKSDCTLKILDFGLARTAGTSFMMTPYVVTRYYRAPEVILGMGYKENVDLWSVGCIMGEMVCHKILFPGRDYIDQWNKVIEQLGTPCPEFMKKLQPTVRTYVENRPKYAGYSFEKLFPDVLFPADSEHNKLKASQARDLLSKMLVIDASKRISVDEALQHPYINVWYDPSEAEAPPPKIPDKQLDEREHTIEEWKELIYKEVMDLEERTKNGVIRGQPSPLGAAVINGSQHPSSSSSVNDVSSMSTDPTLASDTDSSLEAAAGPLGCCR
Method: (§1) Before initiation of kinase reactions, compounds were pre-incubated with the enzyme for 10 minutes. Pre-incubation reactions contained 50 mM HEPES pH 7.3, 10 mM MgCl2, 1 mM DTT, 75 mM NaCl, 1 mM EDTA, 1 mM EGTA, 0.01% CHAPS, 2 nM JNK1, 6 ug/mL biotinylated GST-ATF2, 0.1 mg/ml BSA, 5% DMSO and 0-100 μM compound in a total volume of 40 μL. After a 10 minute room temperature pre-incubation, 10 μL of 35 μM ATP was added to start the reaction (final concentration of ATP=7 uM). Reactions were incubated at room temperature for 30 minutes. A small aliquot (10 uL) was taken and quenched by adding into 190 uL of DELFIA Assay buffer containing 100 mM EDTA. The amount of phosphate transferred to biotinylated GST-ATF2 was measured using the Dissociation Enhanced Lanthanide Fluorescence Immuno-assay (DELFIA) from Perkin Elmer according to manufacturers protocol. Briefly, biotinylated GST-ATF2 was captured on streptavidin coated plates for 1 hour, washed twice, then incubated for 1 hour with a 1:1000 dilution of rabbit-anti-phospho-ATF2 antibody and a 1:3500 dilution of Europium-labeled anti-rabbit secondary antibody. Free antibody was removed with six washes, Europium was dissociated from the antibody, and Europium fluorescence was measured using an excitation wavelength of 340 nm and an emission wavelength of 615 nm. JNK2 and JNK3 kinase reactions were carried out similarly, with the exception that the final concentration of ATP was 4 uM and 2 uM, respectively.

JNK2 = JNK2 (Homo sapiens, UniProt P45984); test: JNK2 kinase DELFIA (phosphorylation of biotinylated GST-ATF2); conditions: final ATP 4 uM, reported as range for a group
JNK2, sequence (P45984 whole entry, species assumed): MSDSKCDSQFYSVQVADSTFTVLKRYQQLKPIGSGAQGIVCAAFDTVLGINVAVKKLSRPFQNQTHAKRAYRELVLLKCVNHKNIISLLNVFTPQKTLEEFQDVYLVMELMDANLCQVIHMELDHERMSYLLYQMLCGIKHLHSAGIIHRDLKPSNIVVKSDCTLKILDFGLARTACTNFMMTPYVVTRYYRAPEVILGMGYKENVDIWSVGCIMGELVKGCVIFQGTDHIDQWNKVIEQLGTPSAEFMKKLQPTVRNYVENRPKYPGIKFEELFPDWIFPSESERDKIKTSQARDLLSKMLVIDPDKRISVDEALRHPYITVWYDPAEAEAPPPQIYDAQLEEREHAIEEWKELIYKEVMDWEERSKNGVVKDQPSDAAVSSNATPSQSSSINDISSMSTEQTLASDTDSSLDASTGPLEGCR
Method: as §1

JNK3 = JNK3 (Homo sapiens, UniProt P53779); test: JNK3 kinase DELFIA (phosphorylation of biotinylated GST-ATF2); conditions: final ATP 2 uM
JNK3, sequence (P53779 whole entry, species assumed): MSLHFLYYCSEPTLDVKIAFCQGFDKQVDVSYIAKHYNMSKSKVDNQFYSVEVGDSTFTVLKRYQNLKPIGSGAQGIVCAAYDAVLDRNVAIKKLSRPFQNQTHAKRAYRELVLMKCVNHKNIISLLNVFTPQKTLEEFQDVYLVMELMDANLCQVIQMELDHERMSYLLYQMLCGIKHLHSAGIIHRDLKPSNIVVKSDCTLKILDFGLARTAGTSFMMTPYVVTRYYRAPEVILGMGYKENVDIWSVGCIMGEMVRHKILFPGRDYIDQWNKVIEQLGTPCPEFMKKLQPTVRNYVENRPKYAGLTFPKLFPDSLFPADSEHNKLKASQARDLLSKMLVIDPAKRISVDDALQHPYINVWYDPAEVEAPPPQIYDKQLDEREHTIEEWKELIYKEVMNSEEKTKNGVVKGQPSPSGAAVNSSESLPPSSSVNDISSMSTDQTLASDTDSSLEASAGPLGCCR
Method: as §1

[1] = DELFIA, 2 nM JNK1, final ATP 7 uM, 10 min pre-incubation, reported as range for a group

pIC50 (JNK1; [1]) | pIC50 (JNK2) | pIC50 (JNK3) | pIC50 (JNK1; read-out: JNK 1 IC50) | Compound
7.00 to 8.22 and 7.70 to 8.22 | 7.34 to 8.40 | 7.30 to 8.05 | – | CC(C)C[C@@H](CO)NC(=O)c1c(-c2ccsc2)nc2c(C(=O)NCc3ccc4nc(N)sc4c3)cccn12 [Compound 14]
7.00 to 8.22 | 7.34 to 8.40 | 7.30 to 8.05 | – | CC(C)(C)[C@@H](CO)NC(=O)c1c(-c2ccsc2)nc2c(C(=O)NCc3ccc4nc(N)sc4c3)cccn12 [Compound 17]
7.00 to 8.22 | 6.76 to 6.97 | 6.32 to 6.68 | – | Nc1nc2ccc(CNC(=O)c3cccn4c(C(=O)NC[C@H]5CCCCC[C@H]5O)c(-c5ccsc5)nc34)cc2s1 [Compound 48]
7.70 to 8.22 and 8.00 to 8.22 | 7.34 to 8.40 | 7.30 to 8.05 | 8.10 | Cc1nc2cc(CNC(=O)c3cccn4c(C(=O)N[C@H](CO)CC(C)C)c(-c5ccsc5)nc34)ccc2[nH]1 [Compound 112]
7.70 to 8.22 | 7.34 to 8.40 | 7.30 to 8.05 | – | CC(C)C[C@@H](CO)NC(=O)c1c(-c2ccsc2)nc2c(C(=O)NCc3ccc4nc(C(C)C)[nH]c4c3)cccn12 [Compound 114]
7.00 to 8.22 | 7.34 to 8.40 | 7.30 to 8.05 | – | Cc1nc2ccc(CNC(=O)c3cccn4c(C(=O)N[C@H](CO)CC(C)C)c(-c5ccsc5)nc34)cc2s1 [Compound 130]
– | 7.34 to 8.40 | 7.30 to 8.05 | – | CNc1nc2ccc(CNC(=O)c3cccn4c(C(=O)N[C@H](CO)CC(C)C)c(-c5ccsc5)nc34)cc2s1 [Compound 155]
– | 4.94 to 5.97 | 6.76 to 6.93 | – | CC[C@H](CO)NC(=O)c1c(-c2ccsc2)nc2c(C(=O)N[C@@H](C)c3ccc(S(C)(=O)=O)cc3)cccn12 [Compound 170]
– | 7.03 to 7.28 | 7.01 to 7.27 | – | CC(C)C[C@@H](CO)NC(=O)c1c(-c2ccsc2)nc2c(C(=O)NCc3ccc(N4CCCC4=O)cc3)cccn12 [Compound 206]
– | 7.03 to 7.28 | 7.30 to 8.05 | – | CC(C)C[C@@H](CO)NC(=O)c1c(-c2ccsc2)nc2c(C(=O)NCc3ccc(-c4ccccn4)s3)cccn12 [Compound 215]
7.70 to 8.22 | 7.34 to 8.40 | 7.30 to 8.05 | – | CC(C)C[C@@H](CO)NC(=O)c1c(-c2ccsc2)nc2c(C(=O)NCc3cnn(-c4ccccc4)c3)cccn12 [Compound 216]
7.70 to 8.22 | 7.34 to 8.40 | 7.30 to 8.05 | – | Cc1ccc(-n2cc(CNC(=O)c3cccn4c(C(=O)N[C@H](CO)CC(C)C)c(-c5ccsc5)nc34)cn2)cc1 [Compound 219]
– | 6.18 to 6.70 | 6.32 to 6.68 | – | CC(C)C[C@@H](CO)NC(=O)c1c(-c2ccsc2)nc2c(C(=O)NCC3CCN(C(=O)c4cccnc4)CC3)cccn12 [Compound 230]
7.00 to 8.22 | 7.34 to 8.40 | 7.30 to 8.05 | – | CC(C)C[C@@H](CO)NC(=O)c1c(-c2ccsc2)nc2c(C(=O)NCc3ccc(N4CCCCC4)nc3)cccn12 [Compound 301]
7.00 to 8.22 and 7.70 to 8.22 | 7.34 to 8.40 | 7.30 to 8.05 | – | CC(C)C[C@@H](CO)NC(=O)c1c(-c2ccsc2)nc2c(C(=O)NCc3ccc(-c4ccncc4)nc3)cccn12 [Compound 307]
7.00 to 8.22 | 7.34 to 8.40 | 7.01 to 7.27 | – | CC(C)C[C@@H](CO)NC(=O)c1c(-c2ccsc2)nc2c(C(=O)NCc3ccc(N)nc3)cccn12 [Compound 327]
7.70 to 8.22 | 7.34 to 8.40 | 7.30 to 8.05 | – | CCc1nc2c(C(=O)NCc3ccc4nc(C)n(C)c4c3)cccn2c1C(=O)N[C@H](CO)CC(C)C [Compound 463]
7.00 to 8.22 and 7.70 to 8.22 | 7.34 to 8.40 | 7.30 to 8.05 | 7.96 | Cc1nc2ccc(CNC(=O)c3cccn4c(C(=O)N[C@H](CO)CC(C)C)c(-c5ccccn5)nc34)cc2n1C [Compound 483]
7.00 to 8.22 | 7.34 to 8.40 | 7.30 to 8.05 | – | CC(C)C[C@@H](CO)NC(=O)c1c(-c2cccs2)nc2c(C(=O)NCc3ccc4nc(N)sc4c3)cccn12 [Compound 542]

The remaining lines, values behind:

Compound | pIC50 (JNK1; [1]) | pIC50 (JNK2) | pIC50 (JNK3) | pIC50 (JNK1; read-out: JNK 1 IC50)
Nc1nc2ccc(CNC(=O)c3cccn4c(C(=O)N[C@H](CO)c5ccccc5)c(-c5ccsc5)nc34)cc2s1 [Compound 16] | 7.00 to 8.22 and 7.70 to 8.22 | 7.34 to 8.40 | 7.30 to 8.05 | 7.72
C[C@@H](CO)NC(=O)c1c(-c2ccsc2)nc2c(C(=O)NCc3ccc4nc(N)sc4c3)cccn12 [Compound 22] | 7.00 to 8.22 | 7.03 to 7.28 | 7.30 to 8.05 | –
Nc1nc2ccc(CNC(=O)c3cccn4c(C(=O)N[C@H]5CC[C@H](O)CC5)c(-c5ccsc5)nc34)cc2s1 [Compound 56] | 7.00 to 8.22 | 6.76 to 6.97 | 6.76 to 6.93 | –
C[C@@H](NC(=O)c1c(-c2ccsc2)nc2c(C(=O)NCc3ccc4nc(N)sc4c3)cccn12)[C@@H](O)c1ccccc1 [Compound 62] | – | 6.76 to 6.97 | 7.01 to 7.27 | –
CS(=O)(=O)c1ccc(CNC(=O)c2cccn3c(C(=O)N[C@H](CO)c4ccccc4)c(-c4ccsc4)nc23)cc1 [Compound 93] | 7.00 to 8.22 | 7.03 to 7.28 | 7.01 to 7.27 | –
CC(C)C[C@@H](CO)NC(=O)c1c(-c2ccsc2)nc2c(C(=O)NCc3ccc4nc[nH]c4c3)cccn12 [Compound 111] | – | 7.03 to 7.28 | 7.01 to 7.27 | –
CC(C)C[C@@H](CO)NC(=O)c1c(-c2ccsc2)nc2c(C(=O)NCc3ccc4ncsc4c3)cccn12 [Compound 113] | – | 7.03 to 7.28 | 7.01 to 7.27 | –
CC(C)C[C@@H](CO)NC(=O)c1c(-c2ccsc2)nc2c(C(=O)NCc3ccc4ncccc4c3)cccn12 [Compound 115] | – | 7.34 to 8.40 | 7.30 to 8.05 | –
CC[C@@H](CO)NC(=O)c1c(-c2ccsc2)nc2c(C(=O)NCc3ccc(-n4nccc4C(C)C)cc3)cccn12 [Compound 178] | – | 6.18 to 6.70 | 6.32 to 6.68 | –
CC[C@@H](CO)NC(=O)c1c(-c2ccsc2)nc2c(C(=O)NCc3ccc(Cl)nc3)cccn12 [Compound 181] | – | 6.18 to 6.70 | 6.76 to 6.93 | –
CC(C)C[C@H](CO)NC(=O)c1c(-c2ccsc2)nc2c(C(=O)NCc3ccc(S(C)(=O)=O)cc3)cccn12 [Compound 205] | – | 7.03 to 7.28 | 7.01 to 7.27 | –
Cc1cccc(-n2cc(CNC(=O)c3cccn4c(C(=O)N[C@H](CO)CC(C)C)c(-c5ccsc5)nc34)cn2)c1 [Compound 218] | 7.70 to 8.22 | 7.34 to 8.40 | 7.30 to 8.05 | –
CC(C)C[C@H](CO)NC(=O)c1c(-c2ccsc2)nc2c(C(=O)NCc3ccc(N4CCCC4)nc3)cccn12 [Compound 291] | 7.00 to 8.22 | 6.76 to 6.97 | 7.01 to 7.27 | –
CC(C)C[C@@H](CO)NC(=O)c1c(-c2ccsc2)nc2c(C(=O)NCc3ccnc(N4CCCC4)c3)cccn12 [Compound 296] | 7.00 to 8.22 and 7.70 to 8.22 | 7.34 to 8.40 | 7.30 to 8.05 | –
CC(C)C[C@@H](CO)NC(=O)c1c(-c2ccsc2)nc2c(C(=O)NCc3ccc(N4CCN(C)CC4)nc3)cccn12 [Compound 299] | 7.00 to 8.22 | 7.34 to 8.40 | 7.30 to 8.05 | –
CC(C)C[C@@H](CO)NC(=O)c1c(-c2ccsc2)nc2c(C(=O)NCc3ccc(N4CCOCC4)nc3)cccn12 [Compound 300] | 7.00 to 8.22 and 7.70 to 8.22 | 7.34 to 8.40 | 7.30 to 8.05 | –
CC(C)C[C@@H](CO)NC(=O)c1c(-c2ccsc2)nc2c(C(=O)NCc3ccc(-c4cccnc4)nc3)cccn12 [Compound 306] | 7.00 to 8.22 and 7.70 to 8.22 | 7.34 to 8.40 | 7.30 to 8.05 | –
Cc1ccn(-c2ccc(CNC(=O)c3cccn4c(C(=O)N[C@H](CO)CC(C)C)c(-c5ccsc5)nc34)cn2)n1 [Compound 323] | 7.00 to 8.22 | 7.34 to 8.40 | 7.30 to 8.05 | –
Cc1cc(C(=O)NCc2ccc3nc(N)sc3c2)c2nc(-c3ccsc3)c(C(=O)N[C@@H](CO)CC(C)C)n2c1 [Compound 350] | – | 4.94 to 5.97 | 4.79 | –
CC(C)C[C@@H](CO)NC(=O)c1c(-c2ccccc2)nc2c(C(=O)NCc3ccc4nc(N)sc4c3)cccn12 [Compound 451] | 7.00 to 8.22 | 7.34 to 8.40 | 7.30 to 8.05 | –
CC(C)C[C@@H](CO)NC(=O)c1c(-c2ccc(F)cc2)nc2c(C(=O)NCc3ccc4nc(N)sc4c3)cccn12 [Compound 452] | 7.00 to 8.22 | 7.03 to 7.28 | 7.01 to 7.27 | –
CCc1nc2c(C(=O)NCc3ccc4nc(N)sc4c3)cccn2c1C(=O)N[C@H](CO)CC(C)C [Compound 456] | 7.00 to 8.22 | 7.34 to 8.40 | 7.30 to 8.05 | –
CC(C)C[C@@H](CO)NC(=O)c1c(-c2ccccn2)nc2c(C(=O)NCc3ccc4nc(N)sc4c3)cccn12 [Compound 478] | 7.00 to 8.22 and 7.70 to 8.22 and 8.00 to 8.22 | 7.34 to 8.40 | 7.30 to 8.05 | 8.00
Cc1nc2ccc(CNC(=O)c3cccn4c(C(=O)N[C@H](CO)CC(C)C)c(-c5ccccn5)nc34)cc2[nH]1 [Compound 479] | 7.00 to 8.22 and 7.70 to 8.22 and 8.00 to 8.22 | 7.34 to 8.40 | 7.30 to 8.05 | –
CC(C)C[C@@H](CO)NC(=O)c1c(-c2cc(F)cc(F)c2)nc2c(C(=O)NCc3ccc4nc(N)sc4c3)cccn12 [Compound 544] | 7.00 to 8.22 | 7.34 to 8.40 | 7.30 to 8.05 | 7.64
